Measurements taken from patent US20130137772A1, “HYDROXYPOLYAMINE SALTS” (priority 2011, published 2013).
“And” between values parts separate entries of the source, which are not always exact repeats. Equal values may be shown once.

Assay: Tissue distribution and metabolism: polyamine content of kidney, liver and pancreas via HPLC
Type: in vivo, Female CD-1 mice
Protocol: The tissue distribution and metabolism of DEHSPM, (HO)2DEHSPM HCl Salt and (HO)2DEHSPM Mesylate Salt in various organs were evaluated utilizing the following protocol:
Tissue Distribution and Metabolism of DEHSPM, (HO)2DEHSPM HCl Salt and (HO)2DEHSPM Mesylate Salt
• 1) DEHSPM, (HO)2DEHSPM HCl salt, and (HO)2DEHSPM mesylate salt were dissolved in sterile normal saline; the pH was not adjusted. • 2) Female CD-1 mice were given the drugs at equimolar dosages intraperitoneally once daily for 5 days. • 3) The animals, n=3-4 per group, were euthanized 4, 8, or 24 h post-last dose. • 4) The kidney, liver, and pancreas were removed and assessed for their polyamine content via HPLC analysis. • 5) The polyamine concentration data (mean±STD) are expressed as nmol/g wet weight of tissue. SPM, spermine; SPD, spermidine; PUT, putrescine; N.D., not determined. • 6) A one-tailed t test assuming unequal variance was performed on the tissue polyamine concentration data. A value of p<0.05 was considered significant.

[1] = kidney, 4 h post-last dose, mesylate salt 30.3 mg/kg/d IP x 5 d
[2] = kidney, 8 h post-last dose, mesylate salt 30.3 mg/kg/d IP x 5 d
[3] = kidney, 24 h post-last dose, mesylate salt 30.3 mg/kg/d IP x 5 d
[4] = liver, 4 h post-last dose, mesylate salt 30.3 mg/kg/d IP x 5 d
[5] = liver, 8 h post-last dose, mesylate salt 30.3 mg/kg/d IP x 5 d
[6] = liver, 24 h post-last dose, mesylate salt 30.3 mg/kg/d IP x 5 d
[7] = pancreas, 4 h post-last dose, mesylate salt 30.3 mg/kg/d IP x 5 d
[8] = pancreas, 8 h post-last dose, mesylate salt 30.3 mg/kg/d IP x 5 d
[9] = pancreas, 24 h post-last dose, mesylate salt 30.3 mg/kg/d IP x 5 d
[10] = kidney, 4 h post-last dose, HCl salt 20 mg/kg/d IP x 5 d
[11] = kidney, 8 h post-last dose, HCl salt 20 mg/kg/d IP x 5 d
[12] = kidney, 24 h post-last dose, HCl salt 20 mg/kg/d IP x 5 d
[13] = liver, 4 h post-last dose, HCl salt 20 mg/kg/d IP x 5 d
[14] = liver, 8 h post-last dose, HCl salt 20 mg/kg/d IP x 5 d
[15] = liver, 24 h post-last dose, HCl salt 20 mg/kg/d IP x 5 d
[16] = liver, 24 h post-last dose, HCl salt 20 mg/kg/d IP x 5 d, listed as (HO)2DEHSPM•4HCl Salt
[17] = pancreas, 4 h post-last dose, HCl salt 20 mg/kg/d IP x 5 d
[18] = pancreas, 8 h post-last dose, HCl salt 20 mg/kg/d IP x 5 d
[19] = pancreas, 24 h post-last dose, HCl salt 20 mg/kg/d IP x 5 d

CCNCCC(O)CNCCCCNCC(O)CCNCC.CS(=O)(=O)O.CS(=O)(=O)O.CS(=O)(=O)O.CS(=O)(=O)O (stereo not shown) [(HO)2DEHSPM Mesylate Salt]
(HO)2DEHSPM Mesylate concentration [1]: 541 ± 65 nmol/g wet weight of tissue | (HO)2HSPM concentration [1]: 77 ± 6 nmol/g wet weight of tissue | PUT concentration [1]: 7 ± 12 nmol/g wet weight of tissue | SPD concentration [1]: 404 ± 24 nmol/g wet weight of tissue | SPM concentration [1]: 680 nmol/g wet weight of tissue and 680 ± 15 nmol/g wet weight of tissue | (HO)2DEHSPM Mesylate concentration [2]: 533 ± 84 nmol/g wet weight of tissue | (HO)2HSPM concentration [2]: 89 ± 14 nmol/g wet weight of tissue | PUT concentration [2]: 0 ± 0 nmol/g wet weight of tissue | SPD concentration [2]: 265 ± 5 nmol/g wet weight of tissue | SPM concentration [2]: 655 nmol/g wet weight of tissue and 655 ± 41 nmol/g wet weight of tissue | (HO)2DEHSPM Mesylate concentration [3]: 360 ± 43 nmol/g wet weight of tissue | (HO)2HSPM concentration [3]: 97 ± 5 nmol/g wet weight of tissue | PUT concentration [3]: 26 ± 5 nmol/g wet weight of tissue | SPD concentration [3]: 239 ± 9 nmol/g wet weight of tissue | SPM concentration [3]: 601 nmol/g wet weight of tissue and 601 ± 29 nmol/g wet weight of tissue | (HO)2DEHSPM Mesylate concentration [4]: 168 ± 32 nmol/g wet weight of tissue | (HO)2HSPM concentration [4]: 79 ± 7 nmol/g wet weight of tissue | PUT concentration [4]: 0 ± 0 nmol/g wet weight of tissue | SPD concentration [4]: 1044 ± 177 nmol/g wet weight of tissue | SPM concentration [4]: 908 nmol/g wet weight of tissue and 908 ± 55 nmol/g wet weight of tissue | (HO)2DEHSPM Mesylate concentration [5]: 135 ± 3 nmol/g wet weight of tissue | (HO)2HSPM concentration [5]: 116 ± 15 nmol/g wet weight of tissue | PUT concentration [5]: 0 ± 0 nmol/g wet weight of tissue | SPD concentration [5]: 1108 ± 146 nmol/g wet weight of tissue | SPM concentration [5]: 987 nmol/g wet weight of tissue and 987 ± 49 nmol/g wet weight of tissue | (HO)2DEHSPM Mesylate concentration [6]: 73 ± 11 nmol/g wet weight of tissue | (HO)2HSPM concentration [6]: 88 ± 5 nmol/g wet weight of tissue | PUT concentration [6]: 0 ± 0 nmol/g wet weight of tissue | SPD concentration [6]: 910 ±10 nmol/g wet weight of tissue | SPM concentration [6]: 807 nmol/g wet weight of tissue and 807 ± 138 nmol/g wet weight of tissue | (HO)2DEHSPM Mesylate concentration [7]: 131 ± 27 nmol/g wet weight of tissue | (HO)2HSPM concentration [7]: 50 ± 6 nmol/g wet weight of tissue | PUT concentration [7]: 36 ± 10 nmol/g wet weight of tissue | SPD concentration [7]: 5717 ± 426 nmol/g wet weight of tissue | SPM concentration [7]: 1108 nmol/g wet weight of tissue and 1108 ± 15 nmol/g wet weight of tissue | (HO)2DEHSPM Mesylate concentration [8]: 153 ± 11 nmol/g wet weight of tissue | (HO)2HSPM concentration [8]: 70 ± 2 nmol/g wet weight of tissue | PUT concentration [8]: 57 ± 15 nmol/g wet weight of tissue | SPD concentration [8]: 6460 ± 280 nmol/g wet weight of tissue | SPM concentration [8]: 1333 nmol/g wet weight of tissue and 1333 ± 103 nmol/g wet weight of tissue | (HO)2DEHSPM Mesylate concentration [9]: 134 ± 14 nmol/g wet weight of tissue | (HO)2HSPM concentration [9]: 75 ± 4 nmol/g wet weight of tissue | PUT concentration [9]: 31 ± 3 nmol/g wet weight of tissue | SPD concentration [9]: 6147 ± 223 nmol/g wet weight of tissue | SPM concentration [9]: 1273 ± 210 nmol/g wet weight of tissue

CCNCCC(O)CNCCCCNCC(O)CCNCC.Cl.Cl.Cl.Cl (stereo not shown) [(HO)2DEHSPM HCl Salt]
(HO)2DEHSPM 4HCl Salt concentration [10]: 852 ± 202 nmol/g wet weight of tissue | (HO)2HSPM concentration [10]: 50 ± 19 nmol/g wet weight of tissue | PUT concentration [10]: 31 ± 27 nmol/g wet weight of tissue | SPD concentration [10]: 327 ± 86 nmol/g wet weight of tissue | SPM concentration [10]: 544 nmol/g wet weight of tissue | SPM concentration (kidney, 4 h post-last dose, HCl salt 20 mg/kg/d IP x 5 d, listed as (HO)2DEHSPM•4HCl Salt): 544 ± 14 nmol/g wet weight of tissue | (HO)2DEHSPM 4HCl Salt concentration [11]: 871 ± 85 nmol/g wet weight of tissue | (HO)2HSPM concentration [11]: 70 ± 6 nmol/g wet weight of tissue | PUT concentration [11]: 29 ± 5 nmol/g wet weight of tissue | SPD concentration [11]: 275 ± 16 nmol/g wet weight of tissue | SPM concentration [11]: 641 nmol/g wet weight of tissue | SPM concentration (kidney, 8 h post-last dose, HCl salt 20 mg/kg/d IP x 5 d, listed as (HO)2DEHSPM•4HCl Salt): 641 ± 33 nmol/g wet weight of tissue | (HO)2DEHSPM 4HCl Salt concentration [12]: 618 ± 82 nmol/g wet weight of tissue | (HO)2HSPM concentration [12]: 76 ± 7 nmol/g wet weight of tissue | PUT concentration [12]: 28 ± 6 nmol/g wet weight of tissue | SPD concentration [12]: 304 ± 30 nmol/g wet weight of tissue | SPM concentration [12]: 588 nmol/g wet weight of tissue | SPM concentration (kidney, 24 h post-last dose, HCl salt 20 mg/kg/d IP x 5 d, listed as (HO)2DEHSPM•4HCl Salt): 588 ± 5 nmol/g wet weight of tissue | (HO)2DEHSPM 4HCl Salt concentration [13]: 248 ± 17 nmol/g wet weight of tissue | (HO)2HSPM concentration [13]: 70 ± 5 nmol/g wet weight of tissue | PUT concentration [13]: 0 ± 0 nmol/g wet weight of tissue | SPD concentration [13]: 1050 ± 9 nmol/g wet weight of tissue | SPM concentration [13]: 875 nmol/g wet weight of tissue | SPM concentration (liver, 4 h post-last dose, HCl salt 20 mg/kg/d IP x 5 d, listed as (HO)2DEHSPM•4HCl Salt): 875 ± 128 nmol/g wet weight of tissue | (HO)2DEHSPM 4HCl Salt concentration [14]: 228 ± 55 nmol/g wet weight of tissue | (HO)2HSPM concentration [14]: 103 ± 14 nmol/g wet weight of tissue | PUT concentration [14]: 20 ± 17 nmol/g wet weight of tissue | SPD concentration [14]: 1175 ± 190 nmol/g wet weight of tissue | SPM concentration [14]: 1071 nmol/g wet weight of tissue | SPM concentration (liver, 8 h post-last dose, HCl salt 20 mg/kg/d IP x 5 d, listed as (HO)2DEHSPM•4HCl Salt): 1071 ± 7 nmol/g wet weight of tissue | (HO)2DEHSPM 4HCl Salt concentration [15]: 136 ±50 nmol/g wet weight of tissue | (HO)2HSPM concentration [15]: 102 ± 13 nmol/g wet weight of tissue | PUT concentration [15]: 7 ± 14 nmol/g wet weight of tissue | SPD concentration [15]: 884 ± 156 nmol/g wet weight of tissue | SPM concentration [15]: 837 nmol/g wet weight of tissue | (HO)2DEHSPM 4HCl Salt concentration [16]: 136 ± 50 nmol/g wet weight of tissue | SPM concentration [16]: 837 ± 13 nmol/g wet weight of tissue | (HO)2DEHSPM 4HCl Salt concentration [17]: 217 ± 27 nmol/g wet weight of tissue | (HO)2HSPM concentration [17]: 56 ± 11 nmol/g wet weight of tissue | PUT concentration [17]: 32 ± 3 nmol/g wet weight of tissue | SPD concentration [17]: 5868 ± 505 nmol/g wet weight of tissue | SPM concentration [17]: 1153 nmol/g wet weight of tissue and 1153 ± 159 nmol/g wet weight of tissue | (HO)2DEHSPM 4HCl Salt concentration [18]: 223 ± 54 nmol/g wet weight of tissue | (HO)2HSPM concentration [18]: 60 ± 9 nmol/g wet weight of tissue | PUT concentration [18]: 50 ± 7 nmol/g wet weight of tissue | SPD concentration [18]: 6343 ± 596 nmol/g wet weight of tissue | SPM concentration [18]: 1476 nmol/g wet weight of tissue and 1476 ± 101 nmol/g wet weight of tissue | (HO)2DEHSPM 4HCl Salt concentration [19]: 209 ± 37 nmol/g wet weight of tissue | (HO)2HSPM concentration [19]: 58 ± 14 nmol/g wet weight of tissue | PUT concentration [19]: 36 ± 5 nmol/g wet weight of tissue | SPD concentration [19]: 6386 ± 309 nmol/g wet weight of tissue | SPM concentration [19]: 1177 nmol/g wet weight of tissue and 1177 ± 161 nmol/g wet weight of tissue
